Each structure is given as a SMILES string.

For one data set, the system named is A549 cells. Briefly: Cellular proliferation/cytotoxicity assay (Alamar Blue), A549 cells. The note with it: Homo sapiens, A549, 72 h, read-out: Anti-proliferative/Cytotoxic activity (A549 cells). (The colour change of resazurin is a common sign of viable cells or microbes.)
Protocol: The anti-proliferative activity of the compounds as described herein, is evaluated using the OvCAR3, HCT116 and A549 cell lines and the Alamar Blue (Resazurin) cell viability assay (O'Brien et al. Eur J Biochem 267, 5421-5426, 2000). Resazurin is reduced to the fluorescent resorufin by cellular dehydrogenase activity, correlating with viable, proliferating cells. Test compounds are dissolved as 10 mM solutions in DMSO and subsequently diluted. Cells like HCT116 or A549 cells were seeded into 96 well flat bottom plates at a density of 10000 cells/well (OvCAR3 cells), 1000 cells/well (HCT116 cells) or 2000 cells/well (A549 cells) in a volume of 200 μl/well. 24 hours after seeding, 1 μl each of the compound dilutions are added into each well of the 96 well plates. Each compound dilution is tested as at least as duplicates. Wells containing untreated control cells were filled with 200 μl DMEM (Dulbecco's Modified Eagle Medium) containing 0.5 vol % v:v DMSO. The cells are then incubated with the substances for 72 h at 37° C. in a humidified atmosphere containing 5 vol % CO2. To determine the viability of the cells, 20 μl of a Resazurin solution (90 mg/l) are added. After 4 h incubation at 37° C., the fluorescence is measured by extinction at ? =544 nm and an emission of ? =590 nm (Wallac Victor2; Perkin Elmer, USA). For the calculation of the cell viability, the emission value from untreated cells is set as 100% viability and the fluorescence intensity of treated cells are set in relation to the values of untreated cells. Viabilities are expressed as % values. The corresponding IC50 values of the compounds for cytotoxic activity are determined from the concentration-effect curves by means of non-linear regression. The analysis of the data is performed using a biostatistical program (Graph Pad Prism, USA).
On to `Cc1ccn2c(-c3ccccc3)c(-c3ccc(CN4CCC(c5n[nH]c(-c6ccccn6)n5)CC4)cc3)nc2n1` [Example 19, 7-methyl-3-phenyl-2-(4-{[4-(5-pyridin-2-yl-1,2,4-triazol-3-yl)piperidin-1-yl]methyl}phenyl)imidazo[1,2-a]pyrimidine], for which the IC50 was below 10 µM.

Take `c1ccc(-c2nc(C3CCN(Cc4ccc(-c5nc6ccccn6c5-c5cccs5)cc4)CC3)n[nH]2)nc1` [Example 17, 2-(4-{[4-(5-pyridin-2-yl-1,2,4-triazol-3-yl)piperidin-1-yl]methyl}phenyl)-3-(2-thienyl)imidazo[1,2-a]pyridine]: the IC50 was below 10 µM.

Turning to `c1ccc(-c2nnc(C3CCN(Cc4ccc(-c5nc6ncccn6c5-c5ccccc5)cc4)CC3)[nH]2)cc1` [Example 121, 3-phenyl-2-(4-{[4-(5-phenyl-4H-1,2,4-triazol-3-yl)piperidin-1-yl]methyl}phenyl)imidazo[1,2-a]pyrimidine], the IC50 is below 10 µM.

Regarding `Ic1cnc2nc(-c3ccc(CN4CCC(c5n[nH]c(-c6ccccn6)n5)CC4)cc3)c(-c3ccccc3)n2c1` [Example 23, 6-iodo-3-phenyl-2-(4-{[4-(5-pyridin-2-yl-1,2,4-triazol-3-yl)piperidin-1-yl]methyl}phenyl)imidazo[1,2-a]pyrimidine], the IC50 is above 10 µM.

As for `COc1cccn2c(-c3ccccc3)c(-c3ccc(CN4CCC(c5n[nH]c(-c6ccccn6)n5)CC4)cc3)nc12` [Example 13, 8-methoxy-3-phenyl-2-(4-{[4-(5-pyridin-2-yl-1,2,4-triazol-3-yl)piperidin-1-yl]methyl}phenyl)imidazo[1,2-a]pyridine], the IC50 is below 10 µM.

Take `COc1nccn2c(-c3ccccc3)c(-c3ccc(CN4CCC(c5n[nH]c(-c6ccccn6)n5)CC4)cc3)nc12` [Example 27, 8-methoxy-3-phenyl-2-(4-{[4-(5-pyridin-2-yl-1,2,4-triazol-3-yl)piperidin-1-yl]methyl}phenyl)imidazo[1,2-a]pyrazine]: the IC50 was below 10 µM.

The data set is the same for the next values; noted with them: read-out: Anti-proliferative/Cytotoxic activity (A549 cells); A549 cells, 72 h, Alamar Blue (Resazurin).
As for `Cc1ccc2nc(-c3ccc(CN4CCC(c5nnc(-c6ccccn6)[nH]5)CC4)cc3)c(-c3ccccc3)n2n1` [Example 53, ′6-methyl-3-phenyl-2-(4-{[4-(5-pyridin-2-yl-4H-1,2,4-triazol-3-yl)piperidin-1-yl]methyl}phenyl)imidazo[1,2-b]pyridazine], the IC50 was below 10 µM.

With `c1ccc(-c2c(-c3ccc(CN4CCC(c5nnc(-c6cccs6)[nH]5)CC4)cc3)nc3ccccn23)cc1` [Example 97, ′3-phenyl-2-[4-({4-[5-(2-thienyl)-4H-1,2,4-triazol-3-yl]piperidin-1-yl}methyl)phenyl]imidazo[1,2-a]pyridine], the IC50 was below 10 µM.

For `N#Cc1cc2nc(-c3ccc(CN4CCC(c5nnc(-c6ccccn6)[nH]5)CC4)cc3)c(-c3ccccc3)n2cc1Br` [Example 52, ′6-bromo-3-phenyl-2-(4-{[4-(5-pyridin-2-yl-4H-1,2,4-triazol-3-yl)piperidin-1-yl]methyl}phenyl)imidazo[1,2-a]pyridine-7-carbonitrile], the IC50 is above 10 µM.

`c1ccc(-c2c(-c3ccc(CN4CCC(c5nnc(-c6cccs6)[nH]5)CC4)cc3)nc3sccn23)cc1` [Example 100, ′5-phenyl-6-[4-({4-[5-(2-thienyl)-4H-1,2,4-triazol-3-yl]piperidin-1-yl}methyl)phenyl]imidazo[2,1-b][1,3]thiazole]: the IC50 was below 10 µM.

As for `c1ccc(-c2c(-c3ccc(CN4CCC(c5nnc(-c6ccc[nH]6)[nH]5)CC4)cc3)nc3scnn23)cc1` [Example 108, ′5-phenyl-6-[4-({4-[5-(1H-pyrrol-2-yl)-4H-1,2,4-triazol-3-yl]piperidin-1-yl}methyl)phenyl]imidazo[2,1-b][1,3,4]thiadiazole], the IC50 is below 10 µM.

Take `N#Cc1ccn2c(-c3ccccc3)c(-c3ccc(CN4CCC(c5nnc(-c6nccs6)[nH]5)CC4)cc3)nc2c1` [Example 89, ′3-phenyl-2-[4-({4-[5-(1,3-thiazol-2-yl)-4H-1,2,4-triazol-3-yl]piperidin-1-yl}methyl)phenyl]imidazo[1,2-a]pyridine-7-carbonitrile]: the IC50 was below 10 µM.

For `N#Cc1cccn2c(-c3ccccc3)c(-c3ccc(CN4CCC(c5n[nH]c(-c6ccc(Cl)cn6)n5)CC4)cc3)nc12` [Example 75, ′2-[4-({4-[5-(5-chloropyridin-2-yl)-1H-1,2,4-triazol-3-yl]piperidin-1-yl}methyl)phenyl]-3-phenylimidazo[1,2-a]pyridine-8-carbonitrile], the IC50 is above 10 µM.

`Cc1ccc2nc(-c3ccc(CN4CCC(c5nnc(-c6ncccn6)[nH]5)CC4)cc3)c(-c3ccccc3)n2n1` [Example 83, ′6-methyl-3-phenyl-2-(4-{[4-(5-pyrimidin-2-yl-4H-1,2,4-triazol-3-yl)piperidin-1-yl]methyl}phenyl)imidazo[1,2-b]pyridazine]: the IC50 is above 10 µM.

In the case of `c1ccc(-c2c(-c3ccc(CN4CCC(c5nnc(-c6ccncc6)[nH]5)CC4)cc3)nc3sccn23)cc1` [Example 56, ′5-phenyl-6-(4-{[4-(5-pyridin-4-yl-4H-1,2,4-triazol-3-yl)piperidin-1-yl]methyl}phenyl)imidazo[2,1-b][1,3]thiazole], the IC50 was below 10 µM.

`c1ccc(-c2c(-c3ccc(CN4CCC(c5n[nH]c(-c6ncccn6)n5)CC4)cc3)nc3ncccn23)cc1` [Example 79, ′3-phenyl-2-(4-{[4-(5-pyrimidin-2-yl-1H-1,2,4-triazol-3-yl)piperidin-1-yl]methyl}phenyl)imidazo[1,2-a]pyrimidine]: the IC50 is above 10 µM.

Source of the values: patent publication US9387204B2, “Fused bicyclic imidazoles” (BAYER INTELLECTUAL PROPERTY GmbH, priority 2007, dated 2016).
